Assays:
[1] = test system: mice; experiment: Sleep induced by pentobarbital in mice; format: in vivo; settings: pentobarbital 50 mg.kg^-1 i.p.
Method: (b) Absence of modification of the effects of pentobarbital
At time 0, the mice receive, by intraperitoneal or oral administration, distilled water or the medicament according to the invention, obtained in accordance with Example I. After 30 minutes, they receive pentobarbital (50 mg.kg^-1) by intraperitoneal administration.

[2] = test system: mice; experiment: Anti-reserpine activity in mice (reserpine hypothermia); format: in vivo; settings: reserpine 2.5 mg.kg^-1 i.p. 4 h before
Method: Anti-reserpine activity in mice
At time 0, the mice receive reserpine (2.5 mg.kg^-1) by intraperitoneal administration.
After 4 hours, when the hypothermia is significant (30 to 31°C.), the substance to be studied is administered intraperitoneally or orally. The rectal temperature is measured, using a probe, carrying a thermoelectric couple, inserted to a constant depth, every 30 minutes for 2 hours.

CC1CC(c2ccc(Cl)cc2)C(c2ccccc2)C(=O)O1 (stereo not drawn) [Example I, trans-4-(4'-chlorophenyl)-6-methyl-3-phenyl-3,4,5,6-tetrahydropyrone-2]
% of mice which have slept ([1]; 2 mg/kg intraperitoneal): 100% | Time in minutes for induction of sleep ([1]; 2 mg/kg intraperitoneal): 4 min | Time in minutes of sleep ([1]; 2 mg/kg intraperitoneal): 47 ± 7 min | % of mice which have slept ([1]; 2 mg/kg oral): 100% | Time in minutes for induction of sleep ([1]; 2 mg/kg oral): 4 min | Time in minutes of sleep ([1]; 2 mg/kg oral): 60 ± 8 min | % of mice which have slept ([1]; 4 mg/kg intraperitoneal): 100% | Time in minutes for induction of sleep ([1]; 4 mg/kg intraperitoneal): 4 min | Time in minutes of sleep ([1]; 4 mg/kg intraperitoneal): 55 ± 8 min | % of mice which have slept ([1]; 4 mg/kg oral): 100% | Time in minutes for induction of sleep ([1]; 4 mg/kg oral): 4 min | Time in minutes of sleep ([1]; 4 mg/kg oral): 45 ± 4 min | % of mice which have slept ([1]; 8 mg/kg intraperitoneal): 100% | Time in minutes for induction of sleep ([1]; 8 mg/kg intraperitoneal): 4 min | Time in minutes of sleep ([1]; 8 mg/kg intraperitoneal): 36 ± 3 min | % of mice which have slept ([1]; 8 mg/kg oral): 100% | Time in minutes for induction of sleep ([1]; 8 mg/kg oral): 4 min | Time in minutes of sleep ([1]; 8 mg/kg oral): 57 ± 10 min | % of mice which have slept ([1]; 16 mg/kg intraperitoneal): 83% | Time in minutes for induction of sleep ([1]; 16 mg/kg intraperitoneal): 4.5 min | Time in minutes of sleep ([1]; 16 mg/kg intraperitoneal): 26 ± 7 min | % of mice which have slept ([1]; 16 mg/kg oral): 100% | Time in minutes for induction of sleep ([1]; 16 mg/kg oral): 4 min | Time in minutes of sleep ([1]; 16 mg/kg oral): 41 ± 7 min | % of mice which have slept ([1]; 32 mg/kg intraperitoneal): 92% | Time in minutes for induction of sleep ([1]; 32 mg/kg intraperitoneal): 4.5 min | Time in minutes of sleep ([1]; 32 mg/kg intraperitoneal): 27 ± 3 min | % of mice which have slept ([1]; 32 mg/kg oral): 100% | Time in minutes for induction of sleep ([1]; 32 mg/kg oral): 4 min | Time in minutes of sleep ([1]; 32 mg/kg oral): 49 ± 4 min | % of mice which have slept ([1]; 64 mg/kg intraperitoneal): 100% | Time in minutes for induction of sleep ([1]; 64 mg/kg intraperitoneal): 4 min | Time in minutes of sleep ([1]; 64 mg/kg intraperitoneal): 30 ± 9 min | % of mice which have slept ([1]; 64 mg/kg oral): 100% | Time in minutes for induction of sleep ([1]; 64 mg/kg oral): 5 min | Time in minutes of sleep ([1]; 64 mg/kg oral): 29 ± 8 min | % of mice which have slept ([1]; 128 mg/kg intraperitoneal): 83% | Time in minutes for induction of sleep ([1]; 128 mg/kg intraperitoneal): 6 min | Time in minutes of sleep ([1]; 128 mg/kg intraperitoneal): 25 ± 5 min | % of mice which have slept ([1]; 128 mg/kg oral): 100% | Time in minutes for induction of sleep ([1]; 128 mg/kg oral): 4 min | Time in minutes of sleep ([1]; 128 mg/kg oral): 38 ± 7 min | Rectal temperatures °C. ± SD ([2]; Table IIa, 4 mg/kg oral, 30 min): 30.6 ± 0.39 °C | Rectal temperatures °C. ± SD ([2]; Table IIa, 4 mg/kg oral, 60 min): 30.6 ± 0.45 °C | Rectal temperatures °C. ± SD ([2]; Table IIa, 4 mg/kg oral, 90 min): 30.7 ± 0.59 °C | Rectal temperatures °C. ± SD ([2]; Table IIa, 4 mg/kg oral, 120 min): 30.4 ± 0.67 °C | Rectal temperatures °C. ± SD ([2]; Table IIa, 8 mg/kg oral, 30 min): 31.1 ± 0.36 °C | Rectal temperatures °C. ± SD ([2]; Table IIa, 8 mg/kg oral, 60 min): 31.4 ± 0.56 °C | Rectal temperatures °C. ± SD ([2]; Table IIa, 8 mg/kg oral, 90 min): 31.5 ± 0.57 °C | Rectal temperatures °C. ± SD ([2]; Table IIa, 8 mg/kg oral, 120 min): 31.3 ± 0.56 °C | Rectal temperatures °C. ± SD ([2]; Table IIa, 16 mg/kg oral, 30 min): 31.4 ± 0.41 °C | Rectal temperatures °C. ± SD ([2]; Table IIa, 16 mg/kg oral, 60 min): 32.6 ± 0.56 °C | Rectal temperatures °C. ± SD ([2]; Table IIa, 16 mg/kg oral, 90 min): 32.8 ± 0.53 °C | Rectal temperatures °C. ± SD ([2]; Table IIa, 16 mg/kg oral, 120 min): 32.8 ± 0.45 °C | Rectal temperatures °C. ± SD ([2]; Table IIa, 32 mg/kg oral, 30 min): 31.4 ± 0.31 °C | Rectal temperatures °C. ± SD ([2]; Table IIa, 32 mg/kg oral, 60 min): 32.6 ± 0.44 °C | Rectal temperatures °C. ± SD ([2]; Table IIa, 32 mg/kg oral, 90 min): 32.9 ± 0.41 °C | Rectal temperatures °C. ± SD ([2]; Table IIa, 32 mg/kg oral, 120 min): 32.8 ± 0.38 °C | Rectal temperatures °C. ± SD ([2]; Table IIa, 64 mg/kg oral, 30 min): 33.8 ± 0.58 °C | Rectal temperatures °C. ± SD ([2]; Table IIa, 64 mg/kg oral, 60 min): 34.5 ± 0.33 °C | Rectal temperatures °C. ± SD ([2]; Table IIa, 64 mg/kg oral, 90 min): 34.4 ± 0.39 °C | Rectal temperatures °C. ± SD ([2]; Table IIa, 64 mg/kg oral, 120 min): 34.4 ± 0.35 °C | Rectal temperatures °C. ± SD ([2]; Table IIa, 128 mg/kg oral, 30 min): 33.1 ± 0.56 °C | Rectal temperatures °C. ± SD ([2]; Table IIa, 128 mg/kg oral, 60 min): 34.1 ± 0.56 °C | Rectal temperatures °C. ± SD ([2]; Table IIa, 128 mg/kg oral, 90 min): 34.3 ± 0.58 °C | Rectal temperatures °C. ± SD ([2]; Table IIa, 128 mg/kg oral, 120 min): 34.2 ± 0.53 °C | Rectal temperatures °C. ± SD ([2]; Table IIa, 256 mg/kg oral, 30 min): 33.5 ± 0.47 °C | Rectal temperatures °C. ± SD ([2]; Table IIa, 256 mg/kg oral, 60 min): 35.2 ± 0.15 °C | Rectal temperatures °C. ± SD ([2]; Table IIa, 256 mg/kg oral, 90 min): 35.3 ± 0.34 °C | Rectal temperatures °C. ± SD ([2]; Table IIa, 256 mg/kg oral, 120 min): 35.1 ± 0.33 °C | Rectal temperatures °C. ± SD ([2]; 4 mg/kg intraperitoneal, 30 min): 32.7 ± 0.56 °C | Rectal temperatures °C. ± SD ([2]; 4 mg/kg intraperitoneal, 60 min): 33.7 ± 0.47 °C | Rectal temperatures °C. ± SD ([2]; 4 mg/kg intraperitoneal, 90 min): 33.1 ± 0.39 °C

— US4287206A, “Halogen derivatives of 8-hydroxycarboxylic acids; the processes for their preparation and medicaments in which they are present” (priority 1978, dated 1981)
